# Experimental data taken from patent US8138338B2, “Aurora kinase inhibitors from an encoded small molecule library” (GlaxoSmithKline LLC, priority 2006, dated 2012).
# Test system: HCT116 (human colorectal cancer cells)
# Assay: Cell proliferation assay (MTT) using HCT-116 cell line
# Type: cell-based
# Details: 72 h, human carcinoma cell line HCT-116, three days
# Procedure: Cell proliferation assay for Aurora-A compounds using HCT-116 Cell Line HCT116 (human colorectal cancer cells) was obtained from the American Type Culture Collection (Cat. No. CCL-247, Rockville, Md.). Cells were maintained in monolayer culture in McCoy's 5A supplemented with 10% fetal bovine serum (FBS; Omega Scientific, Tarzana, Calif.), 2 mM L-glutamine, 50 IU/ml penicillin and 50 μg/ml streptomycin (Gibco/Invitrogen, Carlsbad, Calif.) in a humidified incubator with 95% air and 5% CO2 at 37° C.
# A single cell suspension was prepared by trypsinization, to provide 1.25E4 cells per mL in their respective culture medium. 96 well plates were seeded with 200 μl/well of the cell suspension to provide an initial seeding density of 2500 cells per well. The plates were placed in a tissue culture incubator (5% CO2, 37° C.) overnight to let cells become adherent.
# Serial dilutions of the testing compounds were prepared at final concentrations in culture medium from a 10 mM stock solution, and assayed in triplicate. The vehicle was prepared by adjusting culture medium to 0.1% v/v DMSO which corresponds to the concentration of DMSO in the wells with test compounds. Test plates were then placed in a tissue culture incubator (5% CO2, 37° C.) for three days after which the MTT assay was performed.
# The MTT assay is a measure of cell viability based on cellular dehydrogenase enzymatic cleavage of the tetrazolium rings in MTT the product of which is measured spectrophotometrically. A 25 μL aliquot of 5 mg/mL MTT (3′[4,5-dimethylthiazol-2-yl]-2,5-diphenyl-tetrazolium bromide, Sigma Cat. No. M2128) prepared in PBS was added directly to the wells. The plates were incubated at 37° C. for two hours, the MTT solution was removed, 150 μL of isopropanol was added to each well, and the plates were rocked at room temperature for 10 minutes. The optical density of the wells was quantitated with a Labsystems Multiskan plate spectrophotometer at 570 nm. Replicate readings were averaged. The results are expressed as a percent of OD signal from control.
row,SMILES,EC50
1,CCCCN(C)c1nc(NCCc2ccccc2OC)nc(NC(Cc2c[nH]c3ncccc23)C(N)=O)n1 (stereo not shown) [Compound 1],3.6 µM
2,CCCCN(C)c1nc(NCCc2ccccc2OC)nc(NCCc2c[nH]c3ncccc23)n1 [Compound 2],3.6 µM
3,C=CCN(c1nc(NCCc2c[nH]c3ncccc23)nc(NCc2cccn2C)n1)C1CCCCC1 [Compound 3],10 µM
4,COc1ccc(Nc2nc(Nc3ccc4ncccc4c3)nc(NC(Cc3c[nH]c4ncccc34)C(N)=O)n2)cc1OC (stereo not shown) [Compound 7],10 µM

# Test system: secretion of TNF-α from LPS-stimulated human monocytes
# Assay: LPS-induced TNF-alpha production in human THP-1 cell line
# Type: cell-based
# Details: LPS-stimulated human monocytes (THP-1), 4 hr; read-out: EC50 for inhibition of TNF-α secretion
# Procedure: THP-1 (human, monocytic) cell line was purchased from the American Type Culture Collection (ATCC, Cat. No. TIB 202). Cell line was passaged three times per week in RPMI 1640 (GIBCO), supplemented with 10% heat-inactivated fetal bovine serum (FBS; Omega Scientific, Tarzana, Calif.), 2 mM L-glutamine, 100 U/ml penicillin and 100 μg/ml streptomycin (Gibco/Invitrogen, Carlsbad, Calif.) in a humidified incubator with 95% air and 5% CO2 at 37° C.
# For the assay THP-1 cells were harvested, counted and suspended at 1E6 cells/ml in culture medium. […] of cell suspension was added to each well at 96 well plates to provide density of 2×10^5 cells per well. Serial dilutions of P38 compounds were prepared at final concentrations in culture medium from a 10 mM stock solution, and assayed in triplicate. Vehicle was prepared by adjusting culture medium to 0.1% v/v DMSO which corresponds to the concentration of DMSO in the wells with test compounds.
# Cells were incubated in presence of the P38 inhibitor for 30 min. After that cells were stimulated with LPS (E. coli 026:B6, 1 μg/ml) for 4 hr at 37° C. in a 5% CO2-incubator. Reaction was stopped by placing samples on ice and centrifuging for 10 min at 1500×g at 4° C. Cell supernatants were harvested and concentration of TNF- was determined by ELISA (BD Pharmingen, San Diego, Calif., Cat. No. 555212), following the manufacturer's instruction. Absorbance read and analyzed at 450 nm on a spectrophotometric ELISA plate reader (Labsystems Multiskan MCC/340). Replicate readings were averaged and the results are expressed as a percent of OD signal from control.
row,SMILES,EC50
1,CONC(=O)c1ccc(C)c(Nc2nc(NCC3CCCC(CN)C3)nc(NC3CCCCC3C)n2)c1 (stereo not shown) [Compound 10],0.022 µM
2,CONC(=O)c1ccc(C)c(Nc2nc(NCC3CCCC(CN)C3)nc(NC3CCCCC3)n2)c1 (stereo not shown) [Compound 11],0.011 µM
3,CONC(=O)c1ccc(C)c(Nc2nc(NCc3cccc(C)c3)nc(N[C@H](C)C(C)(C)C)n2)c1 [Compound 12],0.122 µM
